Results reported in US11208412B2 (DAEGU-GYEONGBUK MEDICAL INNOVATION FOUNDATION, priority 2017, dated 2021).

How the values were obtained:
Test in all cases: Kinase selectivity, DiscoverX scanMAX Kinase assay panel (% control)
Type in all cases: binding
[1] = biological target: T1, kinases of the scanMAX Kinase assay panel (Homo sapiens, UniProt P52564); details: MEK6; 1 uM
T1 construct: purchased DiscoverX Co. (contract measurement) scanMAX Kinase assay panel
T1 sequence (P52564 1-334): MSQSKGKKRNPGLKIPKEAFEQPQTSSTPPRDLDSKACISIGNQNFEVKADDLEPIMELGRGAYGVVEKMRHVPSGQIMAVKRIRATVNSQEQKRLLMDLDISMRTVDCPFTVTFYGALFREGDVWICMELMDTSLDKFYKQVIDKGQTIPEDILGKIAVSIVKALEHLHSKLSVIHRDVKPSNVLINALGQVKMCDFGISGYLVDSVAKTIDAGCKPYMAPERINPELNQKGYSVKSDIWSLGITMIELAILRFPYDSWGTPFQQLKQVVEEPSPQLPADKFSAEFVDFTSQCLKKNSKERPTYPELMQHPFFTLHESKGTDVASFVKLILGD
Outline: (§1)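 Percent of control computed as (compound − positive control)/(negative control − positive control) × 100, DMSO defining 100% and positive control 0%. Each panel kinase exposed to 1 uM compound; values under 35% taken to mean the compound acts on that kinase.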

[2] = biological target: T2, kinases of the scanMAX Kinase assay panel (Homo sapiens, UniProt Q6ZWH5); details: NEK10; 1 uM
T2 construct: purchased DiscoverX Co. (contract measurement) scanMAX Kinase assay panel
T2 sequence (Q6ZWH5 1-1172): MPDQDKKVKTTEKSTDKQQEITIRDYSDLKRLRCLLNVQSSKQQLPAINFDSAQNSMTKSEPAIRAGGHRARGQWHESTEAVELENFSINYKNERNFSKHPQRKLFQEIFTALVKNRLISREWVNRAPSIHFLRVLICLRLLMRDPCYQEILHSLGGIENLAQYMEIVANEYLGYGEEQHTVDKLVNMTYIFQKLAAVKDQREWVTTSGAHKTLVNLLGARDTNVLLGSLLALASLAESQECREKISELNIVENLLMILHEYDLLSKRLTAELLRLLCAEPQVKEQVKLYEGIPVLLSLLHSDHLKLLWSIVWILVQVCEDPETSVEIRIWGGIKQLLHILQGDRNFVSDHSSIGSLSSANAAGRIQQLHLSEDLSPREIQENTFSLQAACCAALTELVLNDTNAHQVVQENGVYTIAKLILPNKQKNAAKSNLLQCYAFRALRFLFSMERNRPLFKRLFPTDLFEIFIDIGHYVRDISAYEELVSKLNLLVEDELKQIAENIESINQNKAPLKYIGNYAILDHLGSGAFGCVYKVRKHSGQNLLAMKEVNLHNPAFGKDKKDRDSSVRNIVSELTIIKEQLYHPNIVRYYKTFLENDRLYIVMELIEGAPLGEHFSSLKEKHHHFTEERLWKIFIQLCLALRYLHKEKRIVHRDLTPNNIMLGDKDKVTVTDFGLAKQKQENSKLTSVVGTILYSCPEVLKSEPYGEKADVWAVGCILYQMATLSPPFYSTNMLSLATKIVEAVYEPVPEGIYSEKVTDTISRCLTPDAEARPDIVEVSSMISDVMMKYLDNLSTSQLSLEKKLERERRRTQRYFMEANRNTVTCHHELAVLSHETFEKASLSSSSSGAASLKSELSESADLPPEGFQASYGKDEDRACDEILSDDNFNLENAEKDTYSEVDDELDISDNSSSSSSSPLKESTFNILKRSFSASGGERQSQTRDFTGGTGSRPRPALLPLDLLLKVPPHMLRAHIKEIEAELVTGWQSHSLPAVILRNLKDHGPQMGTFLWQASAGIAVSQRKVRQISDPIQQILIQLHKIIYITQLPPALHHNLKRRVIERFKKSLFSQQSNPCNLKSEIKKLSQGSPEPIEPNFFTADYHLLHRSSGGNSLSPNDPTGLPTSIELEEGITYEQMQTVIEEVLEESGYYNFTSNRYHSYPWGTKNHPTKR
Outline: as §1

[3] = biological target: T3, kinases of the scanMAX Kinase assay panel (Homo sapiens, UniProt Q06418); details: kinase TYRO3; 1 uM in DMSO
T3 construct: purchased DiscoverX Co. (contract measurement) scanMAX Kinase assay panel
T3 sequence (Q06418 41-890): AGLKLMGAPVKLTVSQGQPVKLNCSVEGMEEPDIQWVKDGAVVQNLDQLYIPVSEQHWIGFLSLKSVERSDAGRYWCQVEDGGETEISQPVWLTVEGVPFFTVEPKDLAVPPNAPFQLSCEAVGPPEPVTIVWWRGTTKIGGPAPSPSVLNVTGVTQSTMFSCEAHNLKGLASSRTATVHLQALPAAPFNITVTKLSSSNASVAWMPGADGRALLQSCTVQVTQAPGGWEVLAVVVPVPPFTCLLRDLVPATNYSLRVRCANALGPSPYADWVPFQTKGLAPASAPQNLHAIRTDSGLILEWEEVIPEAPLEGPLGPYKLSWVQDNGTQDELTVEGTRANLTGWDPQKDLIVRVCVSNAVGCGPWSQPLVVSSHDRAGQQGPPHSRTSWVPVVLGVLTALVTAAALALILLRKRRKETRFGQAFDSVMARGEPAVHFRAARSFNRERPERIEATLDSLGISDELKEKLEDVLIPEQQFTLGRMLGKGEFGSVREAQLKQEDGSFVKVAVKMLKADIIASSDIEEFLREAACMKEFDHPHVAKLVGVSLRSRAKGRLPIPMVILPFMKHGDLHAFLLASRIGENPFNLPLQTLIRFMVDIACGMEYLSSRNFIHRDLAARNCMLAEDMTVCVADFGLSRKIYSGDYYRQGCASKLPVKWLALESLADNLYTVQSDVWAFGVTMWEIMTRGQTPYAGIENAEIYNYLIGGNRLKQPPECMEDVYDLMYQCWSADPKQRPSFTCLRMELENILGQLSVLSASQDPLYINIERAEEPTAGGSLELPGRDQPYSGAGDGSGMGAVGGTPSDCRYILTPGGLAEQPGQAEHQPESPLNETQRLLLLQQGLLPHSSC
Outline: as §1

[4] = biological target: T4, kinases of the scanMAX Kinase assay panel (Homo sapiens, UniProt Q86Z02); details: HIPK1; 1 uM
T4 construct: purchased DiscoverX Co. (contract measurement) scanMAX Kinase assay panel
T4 sequence (Q86Z02 whole entry): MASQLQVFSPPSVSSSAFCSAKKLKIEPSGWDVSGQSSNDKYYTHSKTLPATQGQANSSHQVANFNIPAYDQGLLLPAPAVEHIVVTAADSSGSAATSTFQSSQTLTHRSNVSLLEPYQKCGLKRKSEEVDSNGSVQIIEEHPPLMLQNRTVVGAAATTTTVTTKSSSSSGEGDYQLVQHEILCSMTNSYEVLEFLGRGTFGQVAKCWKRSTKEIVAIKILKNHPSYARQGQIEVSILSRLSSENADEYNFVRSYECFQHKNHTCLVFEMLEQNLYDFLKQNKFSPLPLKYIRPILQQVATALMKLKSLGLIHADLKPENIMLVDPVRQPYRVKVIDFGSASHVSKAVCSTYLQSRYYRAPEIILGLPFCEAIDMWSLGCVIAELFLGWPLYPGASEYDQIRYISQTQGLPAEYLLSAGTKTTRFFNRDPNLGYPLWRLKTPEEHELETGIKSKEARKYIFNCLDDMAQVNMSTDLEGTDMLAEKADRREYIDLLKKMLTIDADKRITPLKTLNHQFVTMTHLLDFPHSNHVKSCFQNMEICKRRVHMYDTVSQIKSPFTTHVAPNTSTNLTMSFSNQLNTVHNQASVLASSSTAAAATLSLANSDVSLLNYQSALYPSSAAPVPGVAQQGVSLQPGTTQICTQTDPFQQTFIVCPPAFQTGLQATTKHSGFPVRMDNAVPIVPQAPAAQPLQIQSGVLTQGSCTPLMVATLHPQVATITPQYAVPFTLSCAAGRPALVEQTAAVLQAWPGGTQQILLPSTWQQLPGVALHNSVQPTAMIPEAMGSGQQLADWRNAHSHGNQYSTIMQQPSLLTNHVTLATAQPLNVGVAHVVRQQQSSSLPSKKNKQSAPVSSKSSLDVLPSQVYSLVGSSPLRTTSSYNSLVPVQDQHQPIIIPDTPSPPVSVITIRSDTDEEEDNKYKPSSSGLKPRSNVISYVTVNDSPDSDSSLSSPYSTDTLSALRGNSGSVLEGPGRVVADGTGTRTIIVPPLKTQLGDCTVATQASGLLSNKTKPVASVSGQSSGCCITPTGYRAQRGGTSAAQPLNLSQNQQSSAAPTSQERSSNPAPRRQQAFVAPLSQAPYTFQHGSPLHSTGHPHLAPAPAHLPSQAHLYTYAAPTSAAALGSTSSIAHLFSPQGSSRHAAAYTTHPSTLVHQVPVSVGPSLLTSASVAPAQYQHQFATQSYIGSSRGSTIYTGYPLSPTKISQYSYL
Outline: as §1

[5] = biological target: T5, kinases of the scanMAX Kinase assay panel (Homo sapiens, UniProt Q15569); details: kinase TESK1; 1 uM in DMSO
T5 construct: purchased DiscoverX Co. (contract measurement) scanMAX Kinase assay panel
T5 sequence (Q15569 whole entry): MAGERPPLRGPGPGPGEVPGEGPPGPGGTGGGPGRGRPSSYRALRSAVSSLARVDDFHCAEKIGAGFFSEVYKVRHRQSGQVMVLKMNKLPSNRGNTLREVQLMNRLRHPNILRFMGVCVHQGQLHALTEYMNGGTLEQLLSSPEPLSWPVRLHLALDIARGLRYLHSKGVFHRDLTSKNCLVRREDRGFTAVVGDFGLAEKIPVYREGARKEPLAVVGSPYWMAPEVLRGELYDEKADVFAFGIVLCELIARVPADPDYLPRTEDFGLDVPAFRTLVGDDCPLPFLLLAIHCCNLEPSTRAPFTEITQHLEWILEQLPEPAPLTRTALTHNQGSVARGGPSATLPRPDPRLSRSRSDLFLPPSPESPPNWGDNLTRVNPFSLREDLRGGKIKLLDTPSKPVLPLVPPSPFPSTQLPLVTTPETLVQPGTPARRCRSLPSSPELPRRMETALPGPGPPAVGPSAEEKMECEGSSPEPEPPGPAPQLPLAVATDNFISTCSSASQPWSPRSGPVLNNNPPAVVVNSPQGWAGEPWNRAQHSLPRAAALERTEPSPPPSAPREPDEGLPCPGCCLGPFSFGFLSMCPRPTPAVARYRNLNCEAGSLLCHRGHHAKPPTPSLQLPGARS
Outline: as §1

[6] = biological target: T6, kinases of the scanMAX Kinase assay panel (Homo sapiens, UniProt P49840); details: GSK3A; 1 uM
T6 construct: purchased DiscoverX Co. (contract measurement) scanMAX Kinase assay panel
T6 sequence (P49840 whole entry): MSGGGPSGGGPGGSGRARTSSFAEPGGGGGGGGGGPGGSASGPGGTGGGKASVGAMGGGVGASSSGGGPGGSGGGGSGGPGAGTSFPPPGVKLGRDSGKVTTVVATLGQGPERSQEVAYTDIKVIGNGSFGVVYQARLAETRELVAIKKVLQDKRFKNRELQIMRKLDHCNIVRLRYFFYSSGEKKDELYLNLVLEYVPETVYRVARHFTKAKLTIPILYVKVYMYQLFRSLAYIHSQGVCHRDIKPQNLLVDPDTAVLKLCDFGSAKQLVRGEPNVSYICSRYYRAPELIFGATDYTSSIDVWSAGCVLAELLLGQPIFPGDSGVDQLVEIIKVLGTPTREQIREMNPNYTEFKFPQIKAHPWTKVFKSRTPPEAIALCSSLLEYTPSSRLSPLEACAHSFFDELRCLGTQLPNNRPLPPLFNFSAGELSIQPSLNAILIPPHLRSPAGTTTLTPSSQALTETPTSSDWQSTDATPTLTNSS
Outline: as §1

Row | SMILES | remaining binding at 1 µM [1] | remaining binding at 1 µM [2] | remaining binding at 1 µM [3] | remaining binding at 1 µM [4] | remaining binding at 1 µM [5] | remaining binding at 1 µM [6]
1 | CNc1nc(Nc2ccc(C(=O)N3CCOCC3)cc2OC)nc2[nH]cc(C#N)c12 [Example 1, 2-((2-methoxy-4-(morpholine-4-carbonyl)phenyl)amino)-4-(methylamino)-7H-pyrrolo[2,3-d]pyrimidine-5-carbonitrile] | 43% | 53% | 100% | 61% | 100% | 100%
2 | CC1(Nc2nc(Nc3cnn([C@H]4CCN(C5COC5)C[C@@H]4F)c3Cl)nc3[nH]cc(C#N)c23)CC1 [Example 52, 2-((5-chloro-1-((3S,4S)-3-fluoro-1-(oxetane-3-yl)piperidine-4-yl)-1H-pyrazole-4-yl)amino)((1-methylcyclopropyl)amino)-7H-pyrrolo[2,3-d]pyrimidine-5-carbonitrile] | 19% | 0.95% | 45% | 18% | 65% | 12%
3 | CCNc1nc(Nc2ccc(C(=O)N3CCC(N4CCOCC4)CC3)cc2OC)nc2[nH]cc(C(F)(F)F)c12 [Example 104, (4-((4-(ethylamino)-5-(trifluoromethyl)-7H-pyrrolo[2,3-d]pyrimidine-2-yl)amino)-3-methoxyphenyl)(4-morpholinopiperidine-1-yl)methanone] | 92% | 100% | 100% | 13% | 100% | 100%
